Measured values from US12065427B2, “Heterocyclic compounds capable of activating STING” (BOEHRINGER INGELHEIM INTERNATIONAL GMBH, priority 2021, dated 2024).

Columns and labels:
STING AQ-variant = target: T1, STING AQ-variant (Homo sapiens, UniProt Q86WV6, G230A/H232R/R293Q); experiment: IRF-inducible SEAP reporter assay in THP1-Blue ISG cells, STING AQ-variant; assay type: cell-based; conditions: 24 hours incubation
T1 construct: expressed in transfected cells; host or cells: THP1-Blue ISG hSTING KO clone, retroviral MSCV-ires-GFP-Blasti
Source text: (§1) In Vitro Cytokine Induction Measured Via Activation of an Interferon Regulatory Factor Inducible Reporter Gene
(§2) Activation of the STING protein expressed in cell lines results in an increase of interferon production. By the stable integration of an interferon regulatory factor (IRF)-inducible SEAP gene (secreted embryonic alkaline phosphatase) reporter construct the functional interferon signaling pathway can be monitored. Using Invivogen's THP1-Blue™ ISG colorimetric enzyme assay and a suitable optical density (OD) reader the activity of SEAP can be detected and quantified. This technique could be used to characterize pharmacological modification of the STING pathway.
(§3) Several single nucleotide polymorphisms have been identified in the human STING gene. To determine the activity of the above described compounds, THP1-Blue™ ISG reporter cell lines expressing the different human STING variants have been generated. To do so, the endogenous human STING was first deleted using the CRISPR/CAS9 system: THP1-Blue ISG cells were electroporated with ALL-IN-ONE CRISPR plasmids targeting the STING gene (purchased from Sigma encoding the gRNA and GFP as a reporter gene for successful transduction). GFP positive cells then were sorted 24 h post transfection and expanded. Cells were then dispersed in semisolid methocel medium to allow single cell clone isolations. Clones were then screened for cGAMP responsiveness using the Quanti-Blue™ reporter assay. Non-responsive clones were subsequently analysed for STING loss by western blotting and sequencing of the STING locus.
(§4) For the overexpression of the human STING variants, a confirmed THP1-Blue™ ISG hSTING KO clone was transduced with individual retroviral plasmids (MSCV-ires-GFP-Blasti) encoding the allelic variants of hSTING (WT (H232R), HAQ, R232H, AQ and R293Q). Transduced cells were sorted for different levels of GFP fluorescence and STING allele expression was analysed by western blot.
(§5) Measurements of SEAP activity were performed in THP1-Blue™ ISG cells stably expressing the different human STING isoforms and the IRF-inducible SEAP reporter construct. Cells were cultivated in RPMI1640 medium with 10% fetal calf serum, 50 μg/ml Penicillin-Streptomycin, 100 μg/ml Zeocin, and 100 μg/ml Normocin in a 37°, 95% humidity and 5% CO2 incubator.
(§6) In preparation for the assay, the cells were distributed into the assay plates with a density of 10000 cells/15 μL per well. Compounds were prepared by an 8 point serial dilution in 50% aqueous DMSO and a final dilution step into medium to ensure a final DMSO concentration of 0.5% in the assay. 5 μL of diluted compounds were added to the plates, followed by a 24 hours incubation at 37° C.
(§7) At the day of the assay, 75 μl per well of Quanti-Blue™ reagent was added to all wells of the plate and the plate was incubated another 30 minutes at 37° C. The OD at 620 nm was measured on the EnVision reader (PerkinElmer).
(§8) EC50 values and Hill slopes were derived from 8-point four parametric non-linear curve fittings with the Megalab software (Boehringer Ingelheim) using the OD at 620 nm.
(§9) Data of EC50 values can be found in tables 2a-2e.
Data of EC50 values on STING AQ-variant can be found in table 2e: […]

STING H232R-variant = target: T2, STING H232R-variant (Homo sapiens, UniProt Q86WV6, H232R); experiment: IRF-inducible SEAP reporter assay in THP1-Blue ISG cells, STING H232R-variant; assay type: cell-based; conditions: STING H232R-variant (WT), 24 hours incubation
T2 construct: expressed in transfected cells; host or cells: THP1-Blue ISG hSTING KO clone, retroviral MSCV-ires-GFP-Blasti
Source text: as §1, §2, §3, §4, §5, §6, §7, §8, §9
Data of EC50 values on STING H232R-variant can be found in table 2b: […]

STING R232H-variant = target: T3, STING R232H-variant (Homo sapiens, UniProt Q86WV6); experiment: IRF-inducible SEAP reporter assay in THP1-Blue ISG cells, STING R232H-variant; assay type: cell-based; conditions: 24 hours incubation
T3 construct: expressed in transfected cells; host or cells: THP1-Blue ISG hSTING KO clone, retroviral MSCV-ires-GFP-Blasti
Source text: as §1, §2, §3, §4, §5, §6, §7, §8, §9
Data of EC50 values on STING R232H-variant can be found in table 2c: […]

STING HAQ-variant = target: T4, STING HAQ-variant (Homo sapiens, UniProt Q86WV6, G230A/H232R/R293Q/R71H); experiment: IRF-inducible SEAP reporter assay in THP1-Blue ISG cells, STING HAQ-variant; assay type: cell-based; conditions: STING HAQ-variant (parental or re-introduced), 24 hours incubation
T4 construct: parental THP1-Blue™ ISG cell lines (which express endogenously HAQ); host or cells: THP1-Blue ISG (parental, endogenous HAQ) or STING-KO clone re-transduced with HAQ (MSCV-ires-GFP-Blasti)
Source text: as §1, §2, §3, §4, §5, §6, §7, §8, §9
Data of EC50 values on STING HAQ-variant can be found in table 2a. Shown data below were either derived from the parental THP1-Blue™ ISG cell lines (which express endogenously HAQ) or from genetically engineered THP1-Blue™ ISG cell lines in which first STING has been knocked-out and the HAQ specific STING isoform has been re-introduced as described above.

[1] = tested on: Human STING (hSTING, residues 155-341); experiment: Interaction with hSTING as determined by Differential Scanning Fluorimetry (DSF); assay type: binding; conditions: 100 μM test compounds, 5 μM target protein
Experimental: Interaction with hSTING as Determined by Differential Scanning Fluorimetry (DSF)
In DSF, the temperature at which a protein unfolds, also called the melting temperature Tm, is measured by changes in fluorescence of a dye that binds to the hydrophobic parts of the protein. Tm shifts upon binding of a small molecule are correlated with the binding affinity of this small molecule. As target protein, Human STING (hSTING, residues 155-341, MW: 21578.4 Da; protein stock solution: c=1302 μM stock solution in 20 mM Tris, 100 mM NaCl, 2 mM TCEP pH 8.8) was used, as assay buffer 20 mM Tris, 150 mM NaCI pH7.5 was added where and as necessary.
Final concentrations of components in assay: 100 μM test compounds, 5 μM target protein, “5×” SYPR Orange (from stock solution SYPRO orange solution in DMSO (invitrogen cat.-no. S6650-500 ul), concentration “5000×”)
1) Dilutions of compound stock solutions (10 mM in DMSO) were prepared in assay buffer (20 mM Tris, 150 mM NaCl; pH7.5)
2) 5 μl fluorescent dye stock solution (5000×SYPRO Orange in DMSO) was mixed with 19 μl target protein (1302 μM) and 976 μl assay buffer.
3) 2 μl of this protein-dye-mixture (25×SYPRO Orange and 25 μM Protein) was added to 8 μl diluted compound solution as prepared in step 1. Final volume was 10 μl.
4) With every 20 compounds, two negative controls were measured.
5) The plates were prepared for duplicate measurement and centrifuged for 2 min at 1000 g.
6) For the measurement, a CFX384 Real-Time System (Bio-Rad) was used. The run consisted of 140 cycles with 0.5° C./cycle (temperature ramp 15 s/cycle, 25° C. to 95° C.).
Data analysis: The melting curves were processed in Bio-Rad CFX Manager. Peak type was set to “negative”. Two replicates of TM (melting temperature) measurements were averaged and the standard deviation was calculated.

in vitro = conditions: human, Caco-2, pH 7.4
STING R293Q-variant = target: T5, STING R293Q-variant (Homo sapiens, UniProt Q86WV6, H232R/R293Q); experiment: IRF-inducible SEAP reporter assay in THP1-Blue ISG cells, STING R293Q-variant; assay type: cell-based; conditions: 24 hours incubation
T5 construct: expressed in transfected cells; host or cells: THP1-Blue ISG hSTING KO clone, retroviral MSCV-ires-GFP-Blasti
Source text: as §1, §2, §3, §4, §5, §6, §7, §8, §9
Data of EC50 values on STING R293Q-variant can be found in table 2d: […]

T4 sequence (Q86WV6 whole entry R71H/G230A/H232R/R293Q): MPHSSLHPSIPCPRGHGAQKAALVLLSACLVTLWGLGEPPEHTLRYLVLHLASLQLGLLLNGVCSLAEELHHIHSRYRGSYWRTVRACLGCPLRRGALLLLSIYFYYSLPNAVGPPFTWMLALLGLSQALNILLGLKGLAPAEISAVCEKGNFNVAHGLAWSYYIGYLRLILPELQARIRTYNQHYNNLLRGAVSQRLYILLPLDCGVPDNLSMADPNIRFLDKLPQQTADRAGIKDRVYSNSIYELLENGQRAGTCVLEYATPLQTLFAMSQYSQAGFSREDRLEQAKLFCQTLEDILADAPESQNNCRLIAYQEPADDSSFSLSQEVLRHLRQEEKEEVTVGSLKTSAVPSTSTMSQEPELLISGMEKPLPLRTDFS
T1 sequence (Q86WV6 whole entry G230A/H232R/R293Q): as the sequence (Q86WV6 whole entry R71H/G230A/H232R/R293Q) above, with H71R counted along it
T2 sequence (Q86WV6 whole entry H232R): as the sequence (Q86WV6 whole entry R71H/G230A/H232R/R293Q) above, with H71R, A230G, Q293R counted along it
T3 sequence (Q86WV6 whole entry, stated change not applied): as the sequence (Q86WV6 whole entry R71H/G230A/H232R/R293Q) above, with H71R, A230G, R232H, Q293R counted along it
T5 sequence (Q86WV6 whole entry H232R/R293Q): as the sequence (Q86WV6 whole entry R71H/G230A/H232R/R293Q) above, with H71R, A230G counted along it

Row | SMILES | EC50 (STING AQ-variant) | EC50 (STING H232R-variant) | EC50 (STING R232H-variant) | EC50 (STING HAQ-variant) | thermal shift (ΔTm) [1] | Papp A→B at 10 μM (in vitro) | efflux ratio at 10 μM (in vitro) | EC50 (STING R293Q-variant)
1 | CC(=O)NC1C2CN(c3ccc(-n4nc(-c5cccc6nn(C)cc56)c5cccc(C)c54)cn3)CC21 (stereo not drawn) [compound 55, N-[3-(5-{2′,7-dimethyl-1H,2′H-[3,4′-biindazol]-1-yl}pyridin-2-yl)-3-azabicyclo[3.1.0]hexan-6-yl]acetamide] | 1200 nM | 800 nM | 700 nM | 2300 nM | 20 K | 21 ×10⁻⁶ cm/s | 1 | 1700 nM
2 | Cc1cccc2c(-c3cccc4nn(C)cc34)nn(-c3ccc(N4CC5(CN(C=O)C5)C4)nc3)c12 [compound 54, 6-(5-{2′,7-dimethyl-1H,2′H-[3,4′-biinda-zol]-1-yl}pyridin-2-yl)-2,6-diaza-spiro[3.3]heptane-2-carbaldehyde] | 5300 nM | 300 nM |  | 2100 nM | 21 K | 38 ×10⁻⁶ cm/s | 0.8 | 
3 | Cc1cccc2c(-c3cccc4nn(C)cc34)nn(-c3ccc(N4CC5C(C4)C5C(N)=O)nc3)c12 (stereo not drawn) [compound 72, 3-(5-{2′,7-dimethyl-1H,2′H-[3,4′-biindazol]-1-yl}pyridin-2-yl)-3-azabicyclo[3.1.0]hexane-6-carboxamide] | 800 nM | 600 nM | 300 nM | 1800 nM | 18 K |  |  | 700 nM
4 | CCc1cccc2c(-c3cccc4nn(C)cc34)nn(-c3ccc(N4CC5C(C4)C5C(=O)O)nc3)c12 (stereo not drawn) [compound 65, 3-(5-{7-ethyl-2′-methyl-1H,2′H-[3,4′-biindazol]-1-yl}pyridin-2-yl)-3-azabicy-clo[3.1.0]hexane-6-car-boxylic acid] | 100 nM | 100 nM | 100 nM | 200 nM | 21 K |  |  | 100 nM
5 | Cn1cc2c(-c3nn(-c4ccc(N5CC6C(C5)C6C(=O)O)nc4)c4c(Br)cccc34)cccc2n1 (stereo not drawn) [compound 64, 3-(5-{7-bromo-2′-methyl-1H,2′H-[3,4′-biindazol]-1-yl}pyridin-2-yl)-3-azabicy-clo[3.1.0]hexane-6-car-boxylic acid] |  | 200 nM | 600 nM | 700 nM |  |  |  | 500 nM
6 | Cc1cccc2c(-c3cccc4nn(C)cc34)nn(-c3ccc(N4CCS(=O)(=O)CC4)nc3)c12 [Example #5, 4-(5-{2,7-dimethyl-1H,2′H-[3,4′-biindazol]-1-yl}pyri-din-2-yl)-1λ^6-thiomorpho-line-1,1-dione] |  | 500 nM | 1000 nM | 1400 nM |  |  |  | 1200 nM
7 | CCc1cccc2c(-c3cccc4nn(C)cc34)nn(-c3ccc(N4CCC(C(=O)O)CC4)nc3)c12 [Example #66, 1-(5-{7-ethyl-2′-methyl-1H,2′H-[3,4′-biindazol]-1-yl}pyridin-2-yl)piperidine-4-carboxylic acid] | 800 nM | 300 nM | 200 nM | 1600 nM | 16 K |  |  | 700 nM
8 | Cc1cccc2c(-c3cccc4nn(C)cc34)nn(-c3ccc(N4CCn5cncc5C4)nc3)c12 [compound 12, 1-(6-{5H,6H,7H,8H-imidazo[1,5-a]pyrazin-7-yl}pyridin-3-yl)-2′,7-dimethyl-1H,2'H-3,4′-biindazole] |  | 400 nM | 600 nM | 1900 nM | 21 K | 11 ×10⁻⁶ cm/s | 0.4 | 2100 nM
9 | Cc1cccc2c(-c3cccc4nn(C)cc34)nn(-c3ccc(N4CCN(C=O)CC4)nc3)c12 [compound 51, 4-(5-(2′,7-dimethyl-1H,2′H-[3,4′-biindazol]-1-yl)pyridin-2-yl)piperazine-1-carbaldehyde] | 200 nM | 50 nM | 50 nM | 300 nM | 15 K |  |  | 300 nM
10 | Cc1cccc2c(-c3cccc4nn(C)cc34)nn(-c3ccc(NCc4cncnc4)nc3)c12 [compound 24, 5-{2′,7-dimethyl-1H,2′H-[3,4′-biindazol]-1-yl}-N-[(pyrimidin-5-yl)methyl]pyridin-2-amine] |  | 2000 nM | 2300 nM | 2700 nM |  |  |  | 2200 nM
